# Source: EPA's ToxRefDB 2
# Legend:
# mouse [1] = settings: Subchronic oral toxicity in rodents, b6c3f1, Feed, dose end: 14 week, group: systemic, systemic / organ weight / liver / absolute + systemic / organ weight / liver / relative to body weight + systemic / pathology microscopic / …
# mouse [2] = settings: Chronic toxicity, b6c3f1, Oral, Feed, dose end: 2 year, group: systemic
# mouse [3] = settings: Subchronic oral toxicity in rodents, cd1, Feed, dose end: 14 week, group: systemic
# rat [4] = settings: Combined chronic toxicity/carcinogenicity, fischer, Oral, Feed, dose end: 2 year, group: systemic
# mouse [5] = settings: Chronic toxicity; cd1; Oral; Feed; dose end: 57 week; group: systemic; systemic / pathology microscopic / heart / amyloid deposition + systemic / pathology microscopic / liver / eosinophilic focus + systemic / …
# mouse [6] = settings: Combined chronic toxicity/carcinogenicity, b6c3f1, Oral, Feed, dose end: 2 year
# rabbit = settings: Prenatal developmental toxicity study, himalayan, Oral, Gavage/Intubation, dose end: 18 GD
# dog = settings: Chronic toxicity, beagle, Oral, Feed, dose end: 1 year, group: cholinesterase
# rat [7] = settings: Subchronic oral toxicity in rodents, wistar, Feed, dose end: 86 day
# rat [8] = settings: Combined chronic toxicity/carcinogenicity, sprague dawley, Oral, Feed, dose end: 24 month, group: systemic
# rat [9] = settings: Prenatal developmental toxicity study, sprague dawley, Oral, Gavage/Intubation, dose end: 19 GD
# rat [10] = settings: Subchronic oral toxicity in rodents, sprague dawley, Feed, dose end: 3 month, group: systemic, systemic / clinical chemistry / glucose / glucose + systemic / clinical chemistry / phosphorus / phosphorus + systemic / clinical chemistry…
# mouse [11] = settings: Carcinogenicity; cd1; Oral; Feed; dose end: 24 month; group: systemic; systemic / in life observation / body weight / body weight + systemic / pathology microscopic / kidney / basophilia + systemic / pathology …
# rat [12] = settings: Multigenerational reproductive toxicity study, sprague dawley, Oral, Feed, dose end: 2 generation
# rat [13] = settings: Prenatal developmental toxicity study; other; Oral; Gavage/Intubation; dose end: 19 GD; group: maternal; systemic / in life observation / food consumption / food consumption
# rat [14] = settings: Prenatal developmental toxicity study; other; Oral; Water; dose end: 19 GD; group: maternal; systemic / in life observation / water consumption / water consumption
# mouse [15] = settings: Multigenerational reproductive toxicity study; cd1; Oral; Feed; dose end: 1 generation; group: offspring; systemic / in life observation / body weight / offspring (pup) weight
# mouse [16] = settings: Combined chronic toxicity/carcinogenicity, cd1, Oral, Feed, dose end: 104 week, group: systemic
# rat [17] = settings: Combined chronic toxicity/carcinogenicity, sprague dawley, Oral, Feed, dose end: 113 week, group: systemic
# mouse [18] = settings: Subchronic oral toxicity in rodents, b6c3f1, Gavage/Intubation, dose end: 3 month, group: systemic
# rat [19] = settings: Subchronic oral toxicity in rodents, fischer, Gavage/Intubation, dose end: 3 month, group: systemic
# rat [20] = settings: Multigenerational reproductive toxicity study, sprague dawley, Oral, Feed, dose end: 2 generation; remark: listed apart in the source
# mouse [21] = settings: Subchronic oral toxicity in rodents, swiss albino, Gavage/Intubation, dose end: 14 day, group: systemic
# [22] = systemic / pathology microscopic / liver / hypertrophy + systemic / pathology microscopic / thyroid gland / hyperplasia
# [23] = systemic / pathology microscopic / liver / hypertrophy + systemic / pathology microscopic / thyroid gland / hyperplasia + systemic / in life…
# [24] = systemic / in life observation / clinical signs / grip strength + systemic / organ weight / liver / absolute + systemic / organ weight / …
# [25] = systemic / organ weight / liver / absolute + systemic / pathology microscopic / liver / hypertrophy
# [26] = systemic / in life observation / body weight / body weight + systemic / pathology microscopic / kidney / adenoma + systemic / in life …
# [27] = systemic / pathology microscopic / kidney / nephropathy
# [28] = group: cholinesterase, cholinesterase / cholinesterase / cholinesterase / erythrocyte cholinesterase (che)
# [29] = group: systemic, systemic / in life observation / body weight / body weight + systemic / in life observation / body weight / body weight gain + systemic / in…
# [30] = group: systemic, systemic / organ weight / adrenal gland / nos
# [31] = group: maternal, reproductive / reproductive performance / resorptions / resorptions + reproductive / reproductive performance / aborted / aborted + systemic…
# [32] = cholinesterase / cholinesterase / cholinesterase / brain cholinesterase (che) + cholinesterase / cholinesterase / cholinesterase / plasma …
# [33] = cholinesterase / cholinesterase / cholinesterase / brain cholinesterase (che) + cholinesterase / cholinesterase / cholinesterase / …
# [34] = group: cholinesterase, cholinesterase / cholinesterase / cholinesterase / brain (regional) cholinesterase (che) + cholinesterase / cholinesterase / cholinesterase…
# [35] = group: systemic, systemic / pathology microscopic / seminal vesicle / colloid content
# [36] = systemic / pathology microscopic / stomach / inflammation
# [37] = systemic / pathology microscopic / stomach / inflammation + systemic / in life observation / body weight / body weight + systemic / in life …
# [38] = group: developmental, developmental / developmental malformation / bone / unossified + systemic / in life observation / body weight / fetal weight
# [39] = group: maternal, systemic / in life observation / body weight / body weight gain + systemic / in life observation / clinical signs / defecation (diarrhea) + …
# [40] = group: offspring, systemic / in life observation / body weight / offspring (pup) weight + systemic / in life observation / body weight / offspring (pup) …
# [41] = group: parental, systemic / in life observation / body weight / body weight + systemic / in life observation / clinical signs / soft stools
# [42] = group: parental, systemic / in life observation / body weight / body weight + systemic / in life observation / clinical signs / soft stools + systemic / in …
# [43] = systemic / in life observation / body weight / body weight + systemic / in life observation / clinical signs / feces, discoloration + …
# [44] = systemic / in life observation / clinical signs / fur (altered appearance) + systemic / in life observation / clinical signs / skin …
# [45] = systemic / in life observation / clinical signs / fur (altered appearance)
# [46] = systemic / in life observation / body weight / body weight + systemic / in life observation / body weight / body weight gain + systemic / in…
# [47] = systemic / clinical chemistry / alanine aminotransferase (alt/sgpt) / alanine aminotransferase (alt/sgpt) + systemic / clinical chemistry / …
# [48] = systemic / pathology microscopic / liver / hyperplasia + systemic / pathology microscopic / liver / inflammation + systemic / hematology / …
# [49] = group: offspring, systemic / in life observation / body weight / offspring (pup) weight
# [50] = group: parental, systemic / hematology / lymphocyte / lymphocyte + systemic / hematology / platelet / platelet + systemic / organ weight / spleen / nos + …
# [51] = systemic / hematology / sulphemoglobin / sulphemoglobin
# [52] = systemic / hematology / sulphemoglobin / sulphemoglobin + systemic / hematology / heinz body / heinz body + systemic / hematology / …
smiles,measurement,setting,value
O=C1Nc2ccc(Cl)cc2C(c2ccccc2)=NC1O (stereo unspecified) [Oxazepam],LEL,mouse [1],100 mg/kg/day
same,LOAEL,mouse [1],> 1810 mg/kg/day
same,NEL,mouse [1],< 100 mg/kg/day
same,NOAEL,mouse [1],≥ 1810 mg/kg/day
same,LOAEL,mouse [2]; [22],12 mg/kg/day
same,NOAEL,mouse [2]; [22],< 12 mg/kg/day
same,LEL,mouse [2]; [23],12 mg/kg/day
same,NEL,mouse [2]; [23],< 12 mg/kg/day
same,LOAEL,mouse [3]; [24],> 1400 mg/kg/day
same,NOAEL,mouse [3]; [24],≥ 1400 mg/kg/day
same,LEL,mouse [3]; [25],80 mg/kg/day
same,NEL,mouse [3]; [25],< 80 mg/kg/day
same,LOAEL,rat [4]; [26],> 630 mg/kg/day
same,NOAEL,rat [4]; [26],≥ 630 mg/kg/day
same,LEL,rat [4]; [27],25 mg/kg/day
same,NEL,rat [4]; [27],< 25 mg/kg/day
same,LEL,mouse [5],270 mg/kg/day
same,LOAEL,mouse [5],270 mg/kg/day
same,NEL,mouse [5],< 270 mg/kg/day
same,NOAEL,mouse [5],< 270 mg/kg/day
CCOP(=S)(Oc1cnc(C(C)(C)C)nc1)OC(C)C (stereo unspecified) [Tebupirimfos],LEL,mouse [6]; [28],0.16 mg/kg/day
same,LOAEL,mouse [6]; [28],0.16 mg/kg/day
same,NEL,mouse [6]; [28],< 0.16 mg/kg/day
same,NOAEL,mouse [6]; [28],< 0.16 mg/kg/day
same,LOAEL,mouse [6]; [29],38.8 mg/kg/day
same,NOAEL,mouse [6]; [29],4.53 mg/kg/day
same,LEL,mouse [6]; [30],0.52 mg/kg/day
same,NEL,mouse [6]; [30],< 0.52 mg/kg/day
same,LEL,rabbit; [28],0.3 mg/kg/day
same,LOAEL,rabbit; [28],0.3 mg/kg/day
same,NEL,rabbit; [28],0.1 mg/kg/day
same,NOAEL,rabbit; [28],0.1 mg/kg/day
same,LOAEL,"rabbit; group: maternal, reproductive / reproductive performance / resorptions / resorptions + reproductive / offspring survival early / live fetuses / live fetuses",0.3 mg/kg/day
same,LEL,"rabbit; group: maternal, reproductive / reproductive performance / resorptions / resorptions + reproductive / offspring survival early / live fetuses / live fetuses…",0.3 mg/kg/day
same,NEL,rabbit; [31],0.1 mg/kg/day
same,NOAEL,rabbit; [31],0.1 mg/kg/day
same,LEL,dog; [32],0.005 mg/kg/day
same,NEL,dog; [32],< 0.005 mg/kg/day
same,LOAEL,dog; [33],0.125 mg/kg/day
same,NOAEL,dog; [33],0.02 mg/kg/day
same,LOAEL,rat [7]; [34],1 mg/kg/day
same,NEL,rat [7]; [34],0.2 mg/kg/day
same,NOAEL,rat [7]; [34],0.3 mg/kg/day
same,LEL,rat [7]; [28],0.3 mg/kg/day
same,LOAEL,"rat [7]; group: systemic, systemic / in life observation / body weight / body weight gain + systemic / in life observation / food consumption / food consumption",3.6 mg/kg/day
same,NOAEL,"rat [7]; group: systemic, systemic / in life observation / body weight / body weight gain + systemic / in life observation / food consumption / food consumption + …",1 mg/kg/day
same,LEL,rat [7]; [35],0.2 mg/kg/day
same,NEL,rat [7]; [35],< 0.2 mg/kg/day
O=C(O)CNCP(=O)(O)O [Glyphosate],LEL,rat [8]; [36],457 mg/kg/day
same,LOAEL,rat [8]; [36],457 mg/kg/day
same,NEL,rat [8]; [37],113 mg/kg/day
same,NOAEL,rat [8]; [37],113 mg/kg/day
same,LEL,rat [9]; [38],3500 mg/kg/day
same,LOAEL,rat [9]; [38],3500 mg/kg/day
same,NEL,rat [9]; [38],1000 mg/kg/day
same,NOAEL,rat [9]; [38],1000 mg/kg/day
same,LEL,rat [9]; [39],3500 mg/kg/day
same,LOAEL,rat [9]; [39],3500 mg/kg/day
same,NEL,rat [9]; [39],1000 mg/kg/day
same,NOAEL,rat [9]; [39],1000 mg/kg/day
same,LEL,rat [10],63 mg/kg/day
same,LOAEL,rat [10],> 1270 mg/kg/day
same,NEL,rat [10],< 63 mg/kg/day
same,NOAEL,rat [10],≥ 1270 mg/kg/day
same,LEL,mouse [11],4500 mg/kg/day
same,LOAEL,mouse [11],4500 mg/kg/day
same,NEL,mouse [11],750 mg/kg/day
same,NOAEL,mouse [11],750 mg/kg/day
same,LEL,rat [12]; [40],1500 mg/kg/day
same,LOAEL,rat [12]; [40],1500 mg/kg/day
same,NEL,rat [12]; [40],500 mg/kg/day
same,NOAEL,rat [12]; [40],500 mg/kg/day
same,NEL,rat [12]; [41],500 mg/kg/day
same,NOAEL,rat [12]; [41],500 mg/kg/day
same,LEL,rat [12]; [42],1500 mg/kg/day
same,LOAEL,rat [12]; [42],1500 mg/kg/day
O=C([O-])c1[nH]n(-c2ccc(S(=O)(=O)[O-])cc2)c(=O)c1N=Nc1ccc(S(=O)(=O)[O-])cc1.[Na+].[Na+].[Na+] [FD&C Yellow 5],LEL,rat [13],1000 mg/kg/day
same,LOAEL,rat [13],> 1000 mg/kg/day
same,NEL,rat [13],600 mg/kg/day
same,NOAEL,rat [13],≥ 1000 mg/kg/day
same,LEL,rat [14],1060 mg/kg/day
same,LOAEL,rat [14],> 1060 mg/kg/day
same,NEL,rat [14],568 mg/kg/day
same,NOAEL,rat [14],≥ 1060 mg/kg/day
same,LEL,mouse [15],771 mg/kg/day
same,LOAEL,mouse [15],> 771 mg/kg/day
same,NEL,mouse [15],260 mg/kg/day
same,NOAEL,mouse [15],≥ 771 mg/kg/day
same,LOAEL,mouse [16]; [43],> 8100 mg/kg/day
same,NOAEL,mouse [16]; [43],≥ 8100 mg/kg/day
same,LEL,mouse [16]; [44],714 mg/kg/day
same,NEL,mouse [16]; [44],< 714 mg/kg/day
same,LOAEL,rat [17]; [43],> 2640 mg/kg/day
same,NOAEL,rat [17]; [43],≥ 2640 mg/kg/day
same,LEL,rat [17]; [45],48 mg/kg/day
same,NEL,rat [17]; [45],< 48 mg/kg/day
C=CCc1ccc(OC)cc1 [Estragole],LOAEL,mouse [18]; [46],> 600 mg/kg/day
same,NEL,mouse [18]; [46],37.5 mg/kg/day
same,NOAEL,mouse [18]; [46],≥ 600 mg/kg/day
same,LEL,mouse [18]; systemic / in life observation / body weight / body weight + systemic / in life observation / body weight / body weight gain + systemic / …,75 mg/kg/day
same,LOAEL,rat [19]; [47],> 600 mg/kg/day
same,NOAEL,rat [19]; [47],≥ 600 mg/kg/day
same,LEL,rat [19]; [48],37.5 mg/kg/day
same,NEL,rat [19]; [48],< 37.5 mg/kg/day
O=C(NC(=O)c1c(F)cccc1F)Nc1ccc(Cl)cc1 [Diflubenzuron],LEL,rat [20]; [49],3800 mg/kg/day
same,LOAEL,rat [20]; [49],3800 mg/kg/day
same,NEL,rat [20]; [49],360 mg/kg/day
same,NOAEL,rat [20]; [49],360 mg/kg/day
same,LEL,rat [20]; [50],36 mg/kg/day
same,LOAEL,rat [20]; [50],36 mg/kg/day
same,NEL,rat [20]; [50],< 36 mg/kg/day
same,NOAEL,rat [20]; [50],< 36 mg/kg/day
same,LEL,mouse [21]; [51],200 mg/kg/day
same,LOAEL,mouse [21]; [51],200 mg/kg/day
same,NEL,mouse [21]; [52],40 mg/kg/day
same,NOAEL,mouse [21]; [52],40 mg/kg/day
